According to patent US20190262330A1, “Method of Treating Hepatocellular Carcinoma Using N-(4-(6,7-dimethoxyquinolin-4-yloxy)phenyl)-N′-(4-fluorophenyl)cyclopropane-1,1-dicarboxamide, (2S)-hydroxybutanedioate” (Exelixis, Inc., priority 2017, published 2019):

Assays:
AXL = AXL (Homo sapiens, UniProt P30530); assay: In vitro biochemical and/or cellular kinase assays
ROS1 = ROS1 (Homo sapiens, UniProt P08922); assay: In vitro biochemical and/or cellular kinase assays
[1] = system: advanced hepatocellular carcinoma; details: from study entry; cited from earlier work
TRKB = TRKB (Homo sapiens, UniProt Q16620); assay: In vitro biochemical and/or cellular kinase assays
CYP3A4 [2] = assay: In vitro CYP induction; format: in vitro ADME
RET = RET (Homo sapiens, UniProt P07949); assay: In vitro biochemical and/or cellular kinase assays
CYP2C9 = assay: In vitro CYP induction; format: in vitro ADME
CYP2A6 = CYP2A6 (Homo sapiens, UniProt P11509); assay: In vitro metabolic pathways; format: in vitro ADME
[3] = system: previously treated advanced hepatocellular carcinoma; assay: Phase 3 CELESTIAL trial, efficacy (overall survival, progression-free survival, objective response); format: in vivo, human
Source text: Eligible patients were 18 years of age or older with a pathologic diagnosis of hepatocellular carcinoma not amenable to curative treatment and with Child-Pugh Class A liver function. […] Additional inclusion criteria included Eastern Cooperative Oncology Group (ECOG) performance status of 0 or 1, acceptable hematologic parameters, and adequate renal function.
Randomization was stratified by disease etiology (HBV virus [with or without HCV], HCV [without HBV], or other), geographic region (Asia or other), and the presence of extrahepatic spread of disease and/or macrovascular invasion (yes or no).
Treatment interruptions and dose reductions (to 40 mg and then to 20 mg) were utilized to manage adverse events. Patients received study treatment as long as they experienced clinical benefit as judged by the investigator or until they experienced unacceptable toxicity.
The inflation of type 1 error was controlled by Lan-DeMets O'Brien-Fleming alpha-spending function.
Secondary efficacy endpoints were progression-free survival, defined as the time from randomization to the earlier of radiographic progression or death due to any cause, and objective response rate. Tumor assessments were performed using computed tomography or magnetic resonance imaging at baseline and every 8 weeks after randomization until the later of 8 weeks after radiographic progression or treatment discontinuation. Tumor response and progression were assessed by the investigator using Response Evaluation Criteria In Solid Tumors (RECIST) version 1.1. Eisenhauer E A, Therasse P, Bogaerts J, et al. New response evaluation criteria in solid tumours: revised RECIST guideline (version 1.1). […] Safety was continuously evaluated, and the severity of adverse events was assessed by the investigator using the National Cancer Institute Common Terminology Criteria for Adverse Events, version 4. Progression-free survival was tested by stratified log-rank test; significance level 0.04. Overall response rate was tested by 2-sided Fisher's exact test; significance level Of 0.01.
Efficacy was analyzed in all randomized patients by the intent-to-treat principle. Safety was analyzed in all patients who received at least one dose of study treatment. […] Hazard ratios were estimated using Cox regression models. Hypothesis testing for objective response was done with the Cochran-Mantel-Haenszel method. All subgroup analyses of overall survival and progression-free survival were prespecified except for those based on extrahepatic spread of disease or macrovascular invasion as separate factors or sorafenib as the only prior therapy. For subgroup analyses, no adjustments were made for multiplicity, hazard ratios are unstratified, and confidence intervals are considered descriptive.
Patients could have received one other prior systemic therapy. The primary efficacy endpoint was overall survival (OS). Secondary efficacy endpoints were progression-free survival (PFS) and objective response rate (ORR), as assessed by investigator using RECIST 1.1. Tumor assessments were conducted every 8 weeks.

Sprague-Dawley rats = assay: 2-year rat carcinogenicity study; format: in vivo
CYP2C19 [4] = biological target: CYP2C19 (Homo sapiens, UniProt P33261); assay: In vitro metabolic pathways; format: in vitro ADME
CYP2C8 = CYP2C8 (Homo sapiens, UniProt P10632); assay: In vitro CYP inhibition; format: in vitro ADME
CYP2C19 [5] = assay: In vitro CYP induction; format: in vitro ADME
MER = MER (Homo sapiens, UniProt Q12866); assay: In vitro biochemical and/or cellular kinase assays
CYP2D6 [6] = biological target: T1, CYP2D6 (Homo sapiens, UniProt P10635); assay: In vitro metabolic pathways; format: in vitro ADME
CYP2D6 [7] = biological target: T1, CYP2D6; assay: In vitro CYP inhibition; format: in vitro ADME
[8] = Population pharmacokinetic analysis in specific populations; format: in vivo, human; details: integrated population pharmacokinetic analysis
Source text: The pooled analysis included 391 patients with HCC of whom […] were categorized as having normal liver function, mild, and moderate hepatic impairment, respectively.

TIE-2 = TIE-2 (Homo sapiens, UniProt Q02763); assay: In vitro biochemical and/or cellular kinase assays
CYP2E1 = CYP2E1 (Homo sapiens, UniProt P05181); assay: In vitro metabolic pathways; format: in vitro ADME
MRP2 = MRP2 (Homo sapiens, UniProt Q92887); assay: Drug transporter systems; format: in vitro ADME; details: in vitro
[9] = system: female rats and offspring; assay: Pre- and postnatal study in rats; details: oral, gestation day 10 through postnatal day 20
CYP3A4 [10] = biological target: CYP3A4 (Homo sapiens, UniProt P08684); assay: In vitro CYP inhibition; format: in vitro ADME
[11] = Clinical pharmacokinetics; format: in vivo, human
[12] = subgroup whose only prior systemic therapy was sorafenib

T1 sequence (P10635 whole entry): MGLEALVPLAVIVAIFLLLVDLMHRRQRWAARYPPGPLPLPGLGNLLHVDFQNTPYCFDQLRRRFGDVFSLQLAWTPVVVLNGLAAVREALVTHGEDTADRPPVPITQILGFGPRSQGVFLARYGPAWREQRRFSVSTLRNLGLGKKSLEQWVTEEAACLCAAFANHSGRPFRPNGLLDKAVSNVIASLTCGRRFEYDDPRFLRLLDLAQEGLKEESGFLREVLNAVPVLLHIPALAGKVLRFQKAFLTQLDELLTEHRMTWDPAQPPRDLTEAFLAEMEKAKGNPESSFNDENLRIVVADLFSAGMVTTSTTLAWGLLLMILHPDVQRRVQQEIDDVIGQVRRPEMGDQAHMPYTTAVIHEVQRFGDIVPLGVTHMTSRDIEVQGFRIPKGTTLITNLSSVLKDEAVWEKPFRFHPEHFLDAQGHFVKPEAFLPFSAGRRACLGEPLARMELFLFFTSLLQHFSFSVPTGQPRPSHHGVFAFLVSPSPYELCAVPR
Chain of ROS1 (P08922 28-2347): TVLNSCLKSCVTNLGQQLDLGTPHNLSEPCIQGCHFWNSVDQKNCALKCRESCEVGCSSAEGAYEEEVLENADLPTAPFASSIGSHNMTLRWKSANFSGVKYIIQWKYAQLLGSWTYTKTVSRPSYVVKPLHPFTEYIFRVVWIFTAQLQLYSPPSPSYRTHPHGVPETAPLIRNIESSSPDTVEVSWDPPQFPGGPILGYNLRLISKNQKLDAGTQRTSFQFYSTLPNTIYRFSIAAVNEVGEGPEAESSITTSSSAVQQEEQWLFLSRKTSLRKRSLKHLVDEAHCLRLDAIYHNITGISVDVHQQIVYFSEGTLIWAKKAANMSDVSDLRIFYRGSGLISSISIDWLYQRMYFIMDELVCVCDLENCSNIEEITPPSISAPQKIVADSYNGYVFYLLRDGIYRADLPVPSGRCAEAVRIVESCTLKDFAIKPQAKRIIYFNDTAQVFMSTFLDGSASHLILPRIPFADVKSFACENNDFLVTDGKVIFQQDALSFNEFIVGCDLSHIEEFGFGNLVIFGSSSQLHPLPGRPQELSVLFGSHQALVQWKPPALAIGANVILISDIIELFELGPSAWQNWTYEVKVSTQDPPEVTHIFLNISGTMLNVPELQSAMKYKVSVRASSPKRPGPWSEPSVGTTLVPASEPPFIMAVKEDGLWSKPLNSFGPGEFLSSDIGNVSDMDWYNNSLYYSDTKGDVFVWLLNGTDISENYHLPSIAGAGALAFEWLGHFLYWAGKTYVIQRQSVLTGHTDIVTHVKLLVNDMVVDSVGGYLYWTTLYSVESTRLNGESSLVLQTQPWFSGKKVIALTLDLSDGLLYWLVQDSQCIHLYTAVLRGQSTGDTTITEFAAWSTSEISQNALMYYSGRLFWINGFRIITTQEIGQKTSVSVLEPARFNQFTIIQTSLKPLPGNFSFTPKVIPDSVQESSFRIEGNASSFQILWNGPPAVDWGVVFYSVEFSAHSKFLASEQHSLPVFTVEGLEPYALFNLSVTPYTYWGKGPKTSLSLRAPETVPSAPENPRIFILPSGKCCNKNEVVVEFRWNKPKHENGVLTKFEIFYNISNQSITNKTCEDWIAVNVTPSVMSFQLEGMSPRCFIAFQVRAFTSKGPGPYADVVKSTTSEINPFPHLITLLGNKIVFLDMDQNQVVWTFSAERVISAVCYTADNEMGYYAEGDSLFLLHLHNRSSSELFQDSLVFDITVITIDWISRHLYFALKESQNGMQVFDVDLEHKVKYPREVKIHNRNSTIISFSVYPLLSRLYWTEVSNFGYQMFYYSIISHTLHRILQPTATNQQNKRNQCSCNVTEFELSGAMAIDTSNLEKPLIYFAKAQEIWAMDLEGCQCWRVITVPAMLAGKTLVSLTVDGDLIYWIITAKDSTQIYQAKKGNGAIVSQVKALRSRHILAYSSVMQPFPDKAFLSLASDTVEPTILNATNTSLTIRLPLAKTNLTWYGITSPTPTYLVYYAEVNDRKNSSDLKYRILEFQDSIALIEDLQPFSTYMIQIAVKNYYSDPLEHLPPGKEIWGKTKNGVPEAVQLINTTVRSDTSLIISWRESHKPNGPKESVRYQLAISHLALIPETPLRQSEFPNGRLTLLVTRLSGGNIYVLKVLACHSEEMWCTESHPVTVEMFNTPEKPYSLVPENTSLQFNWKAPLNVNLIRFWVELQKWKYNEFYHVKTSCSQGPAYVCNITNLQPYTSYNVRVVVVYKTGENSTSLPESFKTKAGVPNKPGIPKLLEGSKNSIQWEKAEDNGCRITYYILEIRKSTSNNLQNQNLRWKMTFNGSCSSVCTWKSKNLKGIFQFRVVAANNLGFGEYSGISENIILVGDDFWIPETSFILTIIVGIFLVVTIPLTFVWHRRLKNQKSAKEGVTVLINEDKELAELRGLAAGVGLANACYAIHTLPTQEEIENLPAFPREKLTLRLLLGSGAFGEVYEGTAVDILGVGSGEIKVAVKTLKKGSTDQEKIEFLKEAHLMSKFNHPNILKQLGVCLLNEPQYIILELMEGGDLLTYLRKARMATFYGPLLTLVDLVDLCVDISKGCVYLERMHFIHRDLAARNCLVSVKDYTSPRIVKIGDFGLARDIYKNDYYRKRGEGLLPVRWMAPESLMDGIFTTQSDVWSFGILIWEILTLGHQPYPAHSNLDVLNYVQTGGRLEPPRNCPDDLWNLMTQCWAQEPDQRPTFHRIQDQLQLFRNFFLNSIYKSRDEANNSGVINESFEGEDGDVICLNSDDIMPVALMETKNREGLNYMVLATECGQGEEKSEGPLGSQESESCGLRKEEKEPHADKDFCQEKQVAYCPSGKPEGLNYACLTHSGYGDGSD
Chain of MER (Q12866 21-999): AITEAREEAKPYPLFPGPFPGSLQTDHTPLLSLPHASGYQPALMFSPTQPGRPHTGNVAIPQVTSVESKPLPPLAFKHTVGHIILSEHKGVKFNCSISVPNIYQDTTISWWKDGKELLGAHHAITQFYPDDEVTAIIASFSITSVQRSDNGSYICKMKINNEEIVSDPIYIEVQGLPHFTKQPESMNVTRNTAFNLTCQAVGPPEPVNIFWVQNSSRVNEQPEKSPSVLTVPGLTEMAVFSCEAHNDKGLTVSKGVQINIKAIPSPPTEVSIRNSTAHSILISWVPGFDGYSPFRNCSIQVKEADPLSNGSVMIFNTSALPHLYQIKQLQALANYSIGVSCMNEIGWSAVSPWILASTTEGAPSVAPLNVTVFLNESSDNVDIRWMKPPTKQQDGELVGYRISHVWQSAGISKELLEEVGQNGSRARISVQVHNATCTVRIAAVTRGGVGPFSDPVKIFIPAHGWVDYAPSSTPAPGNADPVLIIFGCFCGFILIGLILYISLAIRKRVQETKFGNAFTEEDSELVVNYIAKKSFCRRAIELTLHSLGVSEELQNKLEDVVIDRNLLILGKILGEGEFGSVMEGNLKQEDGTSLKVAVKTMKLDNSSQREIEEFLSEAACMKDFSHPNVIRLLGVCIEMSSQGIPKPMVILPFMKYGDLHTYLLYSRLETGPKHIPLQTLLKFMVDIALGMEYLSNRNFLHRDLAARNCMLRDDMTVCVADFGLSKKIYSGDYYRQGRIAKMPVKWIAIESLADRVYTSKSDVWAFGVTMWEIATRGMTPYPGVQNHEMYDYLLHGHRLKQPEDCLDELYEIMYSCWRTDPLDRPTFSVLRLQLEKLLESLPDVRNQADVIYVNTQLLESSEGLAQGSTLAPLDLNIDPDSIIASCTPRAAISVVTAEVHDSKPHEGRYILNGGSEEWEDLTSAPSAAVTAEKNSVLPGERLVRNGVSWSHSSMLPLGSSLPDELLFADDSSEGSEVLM
Chain of RET (P07949 29-1114): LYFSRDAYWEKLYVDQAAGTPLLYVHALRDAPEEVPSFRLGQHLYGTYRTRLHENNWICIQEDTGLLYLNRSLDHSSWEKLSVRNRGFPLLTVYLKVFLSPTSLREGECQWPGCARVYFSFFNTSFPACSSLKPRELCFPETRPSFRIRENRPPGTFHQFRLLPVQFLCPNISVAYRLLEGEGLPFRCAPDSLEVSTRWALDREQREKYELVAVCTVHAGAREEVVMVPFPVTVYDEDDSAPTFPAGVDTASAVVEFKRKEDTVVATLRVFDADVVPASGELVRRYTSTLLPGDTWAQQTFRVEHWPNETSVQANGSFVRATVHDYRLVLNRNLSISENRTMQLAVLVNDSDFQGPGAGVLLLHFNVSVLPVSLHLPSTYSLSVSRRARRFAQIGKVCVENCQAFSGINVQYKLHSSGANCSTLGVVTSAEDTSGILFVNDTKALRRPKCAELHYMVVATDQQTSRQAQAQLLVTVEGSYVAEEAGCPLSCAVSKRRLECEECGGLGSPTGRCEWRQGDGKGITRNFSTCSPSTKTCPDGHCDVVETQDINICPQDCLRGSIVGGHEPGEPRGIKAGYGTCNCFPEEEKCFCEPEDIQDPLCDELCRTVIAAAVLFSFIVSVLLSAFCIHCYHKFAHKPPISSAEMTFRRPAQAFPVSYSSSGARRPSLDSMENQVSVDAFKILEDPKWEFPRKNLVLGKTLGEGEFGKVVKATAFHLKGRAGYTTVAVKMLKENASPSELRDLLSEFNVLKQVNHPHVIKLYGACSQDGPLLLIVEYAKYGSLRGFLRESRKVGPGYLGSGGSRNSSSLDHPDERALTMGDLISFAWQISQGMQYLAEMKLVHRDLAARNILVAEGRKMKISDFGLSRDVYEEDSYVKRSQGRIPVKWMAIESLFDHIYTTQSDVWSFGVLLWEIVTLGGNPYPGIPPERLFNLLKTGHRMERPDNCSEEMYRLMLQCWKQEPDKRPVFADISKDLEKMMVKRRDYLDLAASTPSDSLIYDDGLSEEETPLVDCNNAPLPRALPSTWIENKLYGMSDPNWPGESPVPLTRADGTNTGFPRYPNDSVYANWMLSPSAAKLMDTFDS

SMILES: COc1cc2nccc(Oc3ccc(NC(=O)C4(C(=O)Nc5ccc(F)cc5)CC4)cc3)c2cc1OC [cabozantinib]
- Tyrosine kinase activity of AXL (AXL): inhibits
- Tyrosine kinase activity of ROS1 (ROS1): inhibits
- Median overall survival [1]: 11.5 months
- Median progression-free survival [1]: 5.2 months
- Tyrosine kinase activity of TRKB (TRKB): inhibits
- Induction of CYP3A4 (CYP3A4 [2]): does not induce
- Tyrosine kinase activity of RET (RET): inhibits
- Induction of CYP2C9 (CYP2C9): does not induce
- Effect of inhibition of CYP2A6 on metabolite formation (CYP2A6): no effect
- Kaplan-Meier landmark estimate of % of patients alive (95% CI) ([3]; 6 months): 72 (67-76) %
- Kaplan-Meier landmark estimate of % of patients alive (95% CI) ([3]; 12 months): 46 (41-50) %
- Kaplan-Meier landmark estimate of % of patients alive (95% CI) ([3]; 18 months): 32 (27-37) %
- Kaplan-Meier landmark estimate of % of patients alive (95% CI) ([3]; 24 months): 18 (14-22) %
- Disease control (partial response or stable disease) ([3]; ITT): 64%
- Median overall survival ([3]; ITT, second interim analysis, 60 mg once daily): 10.2 months
- Objective response rate ([3]; RECIST 1.1, confirmed responses, ITT): 4%
- Median progression-free survival ([3]; RECIST 1.1 per investigator, ITT): 5.2 months
- Best overall response: complete response, n (%) ([3]; by investigator): 0
- Best overall response: not evaluable or missing ([3]; by investigator): (15) %
- Best overall response: partial response ([3]; by investigator): (4) %
- Best overall response: progressive disease ([3]; by investigator): (21) %
- Best overall response: stable disease ([3]; by investigator): (60) %
- Improvement in progression-free survival vs placebo ([3]; in vivo): more than 3 months
- Median overall survival [3, 12]: 11.3 months
- Median progression-free survival [3, 12]: 5.5 months
- Exposure at that dose, times the human exposure by AUC at the recommended 60 mg dose (Sprague-Dawley rats; 1 mg/kg): approximately 5 times
- Dose with statistically significant increase in incidence of pheochromocytoma in male rats (Sprague-Dawley rats; once daily oral, 2-year): 1 mg/kg
- Effect of inhibition of CYP2C19 on metabolite formation (CYP2C19 [4]): no effect
- Inhibition of CYP2C8 (CYP2C8): inhibitor
- Induction of CYP2C19 (CYP2C19 [5]): does not induce
- Tyrosine kinase activity of MER (MER): inhibits
- Effect of inhibition of CYP2D6 on metabolite formation (CYP2D6 [6]): no effect
- Inhibition of CYP2D6 (CYP2D6 [7]): does not inhibit
- Differences in mean plasma exposure among normal liver function, mild and moderate hepatic impairment [8]: no clinically significant differences
- Tyrosine kinase activity of TIE-2 (TIE-2): inhibits
- Effect of inhibition of CYP2E1 on metabolite formation (CYP2E1): no effect
- MRP2 substrate status (MRP2): substrate
- Doses without adverse maternal toxicity or effect on offspring survival, growth or postnatal development [9]: up to 0.3 mg/kg/day
- Effect on CYP3A4 pathway (CYP3A4 [10]): affected by cabozantinib in vitro
- Steady state achieved ([11]; 140 mg daily): ≤ 15 days
- Vd/F ([11]; human, plasma, po, read-out: Oral volume of distribution (VZ/F)): ~319 L
- Tmax ([11]; human, plasma, oral, read-out: Median time to peak plasma concentrations (Tmax)): 3 to 4 h
